The text below walks through data of publication PMC12406196, “Anticoronavirus Activity of Uridine Glycoconjugates Containing a 1,2,3-Triazole Moiety” (Journal of Medicinal Chemistry, 2025).

This test relates to SARS-CoV-2 S protein (S2 domain). It counts as cell-based. Conditions: Western blot with S2-specific antibodies. For orientation: In western blotting, separated proteins are transferred to a membrane and probed.
In the case of `CC(=O)OC[C@H]1O[C@@H](SCn2cc(COC[C@H]3O[C@@H](n4ccc(=O)[nH]c4=O)[C@H](O[Si](C)(C)C(C)(C)C)[C@@H]3O[Si](C)(C)C(C)(C)C)nn2)[C@H](OC(C)=O)[C@@H](OC(C)=O)[C@@H]1OC(C)=O` [Compound 24, 2′,3′-di-O-tert-Butyldimethylsilyl-5′-O-[(1-(2″,3″,4″,6″-tetra-O-acetyl-β-D-glucopyranosylthiomethyl)-1,2-3-triazol-4-yl)-methyl]-uridine], the “S2 domain levels in the medium of SC-VLP-producing cells” value (“S2 domain levels in the medium” below) is given as “minor alterations”.

For `CC(=O)OC[C@H]1O[C@@H](SCc2cn(C[C@H]3O[C@@H](n4ccc(=O)[nH]c4=O)[C@H](O[Si](C)(C)C(C)(C)C)[C@@H]3O[Si](C)(C)C(C)(C)C)nn2)[C@H](OC(C)=O)[C@@H](OC(C)=O)[C@@H]1OC(C)=O` [Compound 20, 2′,3′-di-O-tert-Butyldimethylsilyl-5′-deoxy-5′-[4-(2″,3″,4″,6″-tetra-O-acetyl-β-D-glucopyranosylthiomethyl)-1,2-3-triazol-1-yl]-uridine], the “S2 domain levels in the medium” value was “minor alterations”.

Regarding `CC(=O)OC[C@H]1O[C@@H](SCc2cn(C[C@H]3O[C@@H](n4ccc(=O)[nH]c4=O)[C@H](O[Si](C)(C)C(C)(C)C)[C@@H]3O[Si](C)(C)C(C)(C)C)nn2)[C@H](OC(C)=O)[C@@H](OC(C)=O)[C@H]1OC(C)=O` [Compound 21, 2′,3′-di-O-tert-Butyldimethylsilyl-5′-deoxy-5′-[4-(2″,3″,4″,6″-tetra-O-acetyl-β-D-galactopyranosylthiomethyl)-1,2-3-triazol-1-yl]-uridine], the “S2 domain levels in the medium” value was “more pronounced reduction”.

As to `CC(=O)OC[C@H]1O[C@@H](OCc2cn(C[C@H]3O[C@@H](n4ccc(=O)[nH]c4=O)[C@H](O[Si](C)(C)C(C)(C)C)[C@@H]3O[Si](C)(C)C(C)(C)C)nn2)[C@H](OC(C)=O)[C@@H](OC(C)=O)[C@H]1OC(C)=O` [Compound 15, 2′,3′-di-O-tert-Butyldimethylsilyl-5′-deoxy-5′-[4-(2″,3″,4″,6″-tetra-O-acetyl-β-D-galactopyranosyloxymethyl)-1,2-3-triazol-1-yl]-uridine], the “S2 domain levels in the medium” value was “minor alterations”.
